Measurements: PubChem BioAssay (NCI)
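Five concentrations, 48 hours, 96-well plates. TGI: concentration producing complete growth inhibition.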

What was measured:
Assay in all cases: growth of human tumour cells (NCI), 48 h
SN12C renal = system: SN12C renal
HOP-62 NSCLC = system: HOP-62 NSCLC
M19-MEL melanoma = system: M19-MEL melanoma
XF 498 CNS = system: XF 498 CNS
ACHN renal = system: ACHN renal
SW-620 colon = system: SW-620 colon
NCI-H226 lung = system: NCI-H226 lung
SF-268 CNS = system: SF-268 CNS
RPMI-8226 leukemia = system: RPMI-8226 leukemia
CAKI-1 renal = system: CAKI-1 renal
DMS 273 small cell lung = system: DMS 273 small cell lung
SK-MEL-2 melanoma = system: SK-MEL-2 melanoma
SK-OV-3 ovarian = system: SK-OV-3 ovarian
LOX IMVI melanoma = system: LOX IMVI melanoma
KM12 colon = system: KM12 colon
IGROV1 ovarian = system: IGROV1 ovarian
NCI-H23 lung = system: NCI-H23 lung
TK-10 renal = system: TK-10 renal
HOP-92 NSCLC = system: HOP-92 NSCLC
SNB-75 CNS = system: SNB-75 CNS
MOLT-4 leukemia = system: MOLT-4 leukemia
CCRF-CEM leukemia = system: CCRF-CEM leukemia
HCT-116 colon = system: HCT-116 colon
OVCAR-5 ovarian = system: OVCAR-5 ovarian
SNB-78 CNS = system: SNB-78 CNS
HT29 colon = system: HT29 colon
OVCAR-8 ovarian = system: OVCAR-8 ovarian
NCI-H522 lung = system: NCI-H522 lung
RXF 393 renal = system: RXF 393 renal
UACC-257 melanoma = system: UACC-257 melanoma
DMS 114 small cell lung = system: DMS 114 small cell lung
HL-60(TB) leukemia = system: HL-60(TB) leukemia
M14 melanoma = system: M14 melanoma
SK-MEL-28 melanoma = system: SK-MEL-28 melanoma
K-562 leukemia = system: K-562 leukemia
NCI-H460 lung = system: NCI-H460 lung
COLO 205 colon = system: COLO 205 colon
SNB-19 CNS = system: SNB-19 CNS
SR leukemia = system: SR leukemia
KM20L2 colon = system: KM20L2 colon
786-0 renal = system: 786-0 renal
RXF-631 renal = system: RXF-631 renal
A498 renal = system: A498 renal
U251 CNS = system: U251 CNS
LXFL 529 NSCLC = system: LXFL 529 NSCLC
HCC-2998 colon = system: HCC-2998 colon
A549 NSCLC = system: A549 NSCLC
SF-295 CNS = system: SF-295 CNS
UACC-62 melanoma = system: UACC-62 melanoma
OVCAR-3 ovarian = system: OVCAR-3 ovarian
HCT-15 colon = system: HCT-15 colon
SK-MEL-5 melanoma = system: SK-MEL-5 melanoma
HOP-18 NSCLC = system: HOP-18 NSCLC
MALME-3M melanoma = system: MALME-3M melanoma
SF-539 CNS = system: SF-539 CNS
EKVX NSCLC = system: EKVX NSCLC
UO-31 renal = system: UO-31 renal
DLD-1 colon = system: DLD-1 colon
OVCAR-4 ovarian = system: OVCAR-4 ovarian

Which results are given for O=C(CCc1cc(-c2ccccc2)nc(=S)[nH]1)Nc1ccccc1[N+](=O)[O-]?
TGI (SN12C renal): > 100 µM; TGI (HOP-62 NSCLC): > 100 µM; TGI (M19-MEL melanoma): > 100 µM; TGI (XF 498 CNS): 91.5 µM; TGI (ACHN renal): > 100 µM; TGI (SW-620 colon): > 100 µM; TGI (NCI-H226 lung): > 100 µM; TGI (SF-268 CNS): > 100 µM; TGI (RPMI-8226 leukemia): > 100 µM; TGI (CAKI-1 renal): > 100 µM; TGI (DMS 273 small cell lung): > 100 µM; TGI (SK-MEL-2 melanoma): > 100 µM; TGI (SK-OV-3 ovarian): > 100 µM; TGI (LOX IMVI melanoma): > 100 µM; TGI (KM12 colon): > 100 µM; TGI (IGROV1 ovarian): > 100 µM; TGI (NCI-H23 lung): > 100 µM; TGI (TK-10 renal): > 100 µM; TGI (HOP-92 NSCLC): > 100 µM; TGI (SNB-75 CNS): > 100 µM; TGI (MOLT-4 leukemia): > 100 µM; TGI (CCRF-CEM leukemia): > 100 µM; TGI (HCT-116 colon): > 100 µM; TGI (OVCAR-5 ovarian): > 100 µM; TGI (SNB-78 CNS): > 100 µM; TGI (HT29 colon): > 100 µM; TGI (OVCAR-8 ovarian): > 100 µM; TGI (NCI-H522 lung): > 100 µM; TGI (RXF 393 renal): > 100 µM; TGI (UACC-257 melanoma): > 100 µM; TGI (DMS 114 small cell lung): > 100 µM; TGI (HL-60(TB) leukemia): > 100 µM; TGI (M14 melanoma): > 100 µM; TGI (SK-MEL-28 melanoma): > 100 µM; TGI (K-562 leukemia): > 100 µM; TGI (NCI-H460 lung): > 100 µM; TGI (COLO 205 colon): > 100 µM; TGI (SNB-19 CNS): > 100 µM; TGI (SR leukemia): > 100 µM; TGI (KM20L2 colon): > 100 µM; TGI (786-0 renal): > 100 µM; TGI (RXF-631 renal): > 100 µM; TGI (A498 renal): > 100 µM; TGI (U251 CNS): > 100 µM; TGI (LXFL 529 NSCLC): > 100 µM; TGI (HCC-2998 colon): > 100 µM; TGI (A549 NSCLC): > 100 µM; TGI (SF-295 CNS): > 100 µM; TGI (UACC-62 melanoma): > 100 µM; TGI (OVCAR-3 ovarian): > 100 µM; TGI (HCT-15 colon): > 100 µM; TGI (SK-MEL-5 melanoma): > 100 µM; TGI (HOP-18 NSCLC): > 100 µM; TGI (MALME-3M melanoma): > 100 µM; TGI (SF-539 CNS): > 100 µM; TGI (EKVX NSCLC): > 100 µM; TGI (UO-31 renal): > 100 µM

What does the source list for CC(C)C1COC(c2cccc(C3=N[C@@H](C(C)C)CO3)n2)=N1 (stereo partly specified)?
TGI (SN12C renal): > 100 µM; TGI (HOP-62 NSCLC): > 100 µM; TGI (M19-MEL melanoma): > 100 µM; TGI (XF 498 CNS): > 100 µM; TGI (ACHN renal): > 100 µM; TGI (SW-620 colon): > 100 µM; TGI (NCI-H226 lung): > 100 µM; TGI (SF-268 CNS): > 100 µM; TGI (RPMI-8226 leukemia): > 100 µM; TGI (CAKI-1 renal): > 100 µM; TGI (DMS 273 small cell lung): > 100 µM; TGI (SK-MEL-2 melanoma): > 100 µM; TGI (SK-OV-3 ovarian): > 100 µM; TGI (LOX IMVI melanoma): > 100 µM; TGI (KM12 colon): > 100 µM; TGI (IGROV1 ovarian): > 100 µM; TGI (NCI-H23 lung): > 100 µM; TGI (TK-10 renal): > 100 µM; TGI (HOP-92 NSCLC): > 100 µM; TGI (SNB-75 CNS): > 100 µM; TGI (MOLT-4 leukemia): > 100 µM; TGI (CCRF-CEM leukemia): > 100 µM; TGI (HCT-116 colon): > 100 µM; TGI (OVCAR-5 ovarian): > 100 µM; TGI (SNB-78 CNS): > 100 µM; TGI (HT29 colon): > 100 µM; TGI (NCI-H522 lung): > 100 µM; TGI (RXF 393 renal): > 100 µM; TGI (DMS 114 small cell lung): > 100 µM; TGI (HL-60(TB) leukemia): > 100 µM; TGI (M14 melanoma): > 100 µM; TGI (SK-MEL-28 melanoma): > 100 µM; TGI (K-562 leukemia): > 100 µM; TGI (NCI-H460 lung): > 100 µM; TGI (COLO 205 colon): > 100 µM; TGI (SNB-19 CNS): > 100 µM; TGI (SR leukemia): > 100 µM; TGI (KM20L2 colon): > 100 µM; TGI (786-0 renal): > 100 µM; TGI (RXF-631 renal): > 100 µM; TGI (A498 renal): > 100 µM; TGI (U251 CNS): > 100 µM; TGI (LXFL 529 NSCLC): > 100 µM; TGI (HCC-2998 colon): > 100 µM; TGI (A549 NSCLC): > 100 µM; TGI (SF-295 CNS): > 100 µM; TGI (DLD-1 colon): > 100 µM; TGI (OVCAR-3 ovarian): > 100 µM; TGI (HCT-15 colon): > 100 µM; TGI (SK-MEL-5 melanoma): > 100 µM; TGI (MALME-3M melanoma): > 100 µM; TGI (SF-539 CNS): > 100 µM; TGI (OVCAR-4 ovarian): > 100 µM; TGI (EKVX NSCLC): > 100 µM; TGI (UO-31 renal): > 100 µM

Which results are given for C=CC1C(OC2OC(CO)C(O)C(O)C2O)OC=C(C(=O)OC)C1CC=O (stereo unspecified)?
TGI (SN12C renal): > 100 µM; TGI (HOP-62 NSCLC): > 100 µM; TGI (M19-MEL melanoma): > 100 µM; TGI (ACHN renal): > 100 µM; TGI (SW-620 colon): > 100 µM; TGI (NCI-H226 lung): > 100 µM; TGI (SF-268 CNS): > 100 µM; TGI (RPMI-8226 leukemia): > 100 µM; TGI (SK-MEL-2 melanoma): > 100 µM; TGI (SK-OV-3 ovarian): > 100 µM; TGI (LOX IMVI melanoma): > 100 µM; TGI (KM12 colon): > 100 µM; TGI (IGROV1 ovarian): > 100 µM; TGI (NCI-H23 lung): > 100 µM; TGI (SNB-75 CNS): > 100 µM; TGI (MOLT-4 leukemia): > 100 µM; TGI (SNB-78 CNS): > 100 µM; TGI (RXF 393 renal): > 100 µM; TGI (HL-60(TB) leukemia): > 100 µM; TGI (M14 melanoma): > 100 µM; TGI (SK-MEL-28 melanoma): > 100 µM; TGI (K-562 leukemia): > 100 µM; TGI (COLO 205 colon): > 100 µM; TGI (SNB-19 CNS): > 100 µM; TGI (SR leukemia): > 100 µM; TGI (KM20L2 colon): > 100 µM; TGI (786-0 renal): > 100 µM; TGI (RXF-631 renal): > 100 µM; TGI (A498 renal): > 100 µM; TGI (U251 CNS): > 100 µM; TGI (LXFL 529 NSCLC): > 100 µM; TGI (A549 NSCLC): > 100 µM; TGI (SF-295 CNS): > 100 µM; TGI (DLD-1 colon): > 100 µM; TGI (UACC-62 melanoma): > 100 µM; TGI (OVCAR-3 ovarian): > 100 µM; TGI (HCT-15 colon): > 100 µM; TGI (SK-MEL-5 melanoma): > 100 µM; TGI (HOP-18 NSCLC): > 100 µM; TGI (MALME-3M melanoma): > 100 µM; TGI (SF-539 CNS): > 100 µM; TGI (OVCAR-4 ovarian): > 100 µM; TGI (EKVX NSCLC): > 100 µM; TGI (UO-31 renal): > 100 µM
